Results from patent publication US20250280843A1, “METHOD FOR INHIBITING POTATOES FROM GREENING AND USE THEREOF” (priority 2024, published 2025).
Like-named read-outs stand apart in the source and are kept apart here.

Legend:
potatoes = assay type: in vivo, potato; conditions: under illumination; specific experimental data omitted
Excerpt: Ethylene, as a plant hormone that promotes maturity and aging, can be produced by some plants themselves and exists in a certain amount in the storage environment and even in the air. Ethylene binds with a related receptor inside a cell to activate a series of physiological and biochemical reactions related to maturity, thereby accelerating aging and death. 1-MCP can also bind well with an ethylene receptor, but such binding will not cause a biochemical reaction of maturity. Therefore, before the production of endogenous ethylene in a plant or the action of exogenous ethylene, if 1-MCP is applied, it will bind with the ethylene receptor first, thereby preventing the binding of ethylene with the receptor thereof, which greatly prolongs the ripening and aging process of fruits and vegetables and extends the length for preservation. There are many reagents that bind with the ethylene receptor to control the production of ethylene, e.g. aminooxyacetic acid (AOA), salicylic acid (SA), 2,5-norbornadiene (2,5-NBD), silver thiosulfate (STS), and aminooxyvinylglycine (AVG). These reagents are all ethylene inhibitors.

StPOD42 = assay: Gene expression by real-time PCR: germination-promoting gene; design: species or system potato; conditions: during storage; vs control
Protocol: Germination-promoting genes included StPOD42 (XM_006363284.2).
(§1) Total RNA was extracted from frozen potato skins and transformed into cDNA. The expression levels of the aforementioned genes were determined by a Bio-Rad CFX 96 Real-Time PCR System (BIO-RAD, Hercules, CA, USA) and a SYBR Green I Master Mix (Vazyme, Nanjing, Jiangsu, China). Thermocycling conditions included an initial denaturation step at 95° C. for 30 s, followed by 39 cycles of 95° C. for 15 s, then 55° C. for 30 s, and 72° C. for 20 s. Three biological replicates were used, and each replicate was measured for three times. StEF-1a was used as a reference gene for potatoes. Gene expression was calculated by using a 2-ΔCt method.

[1] = system: chlorophyll degradation-related genes; assay: Gene expression by real-time PCR: chlorophyll degradation genes; design: species or system potato; conditions: during the greening period; vs control
Protocol: Chlorophyll degradation-related genes included StSGR, StNYC1, StTIC, and StPAO.
as §1

potato tubers [2] = assay: Determination of greening index a* of potato tuber skin after fumigation; assay type: in vivo, potato ("V7"); conditions: for greening index a*: fumigation 10 mg 1-MCP + NaOH 16 h; for Value of greening index a*: with NaOH
Excerpt: The method for inhibiting potatoes from greening was: treating potato tubers with 1-MCP, and specifically, fumigating potato tubers with 1-MCP and NaOH.
(§2) “V7” potatoes were used as experimental materials. They were collected from Dongyu Vegetable Market in Ningbo City, Zhejiang Province. They were freshly picked and transported to the laboratory at room temperature. They were cleaned, and tubers of uniform sizes and free of diseases and insect pests and free of mechanical damages were selected as experimental samples. The samples were divided into two groups, immersed in distilled water for 10 min and then naturally air-dried after the immersion treatment was ended.
(§3) One group served as a control group (CK) without any subsequent treatment, and contained 50 potatoes. For another group, a carton was provided, in which 50 potatoes were placed. The carton was placed in a controlled atmosphere storage box with a volume of 1,000 L at a temperature controlled at 25° C. and the humidity maintained at 60%. The gas composition in the controlled atmosphere storage box was maintained the same as that of the atmosphere. A space was reserved in the controlled atmosphere storage box. 10 mg of 1-MCP dry powder was weighed into a glass weighing bottle. The weighing bottle containing 1-mcp was placed in the controlled atmosphere storage box, and added with 2 ml of a 1M NaOH solution to release 1-mcp gas from the weighing bottle. The weight of the gas was 10 mg. The potatoes were placed in the gas environment, fumigated for 16 h, taken out and then air-dried for 1 h. The meaning of “fumigation” here was to put the potatoes in a gas environment of 10 mg 1-mcp in a 1,000 L controlled atmosphere storage box, which was equivalent to a concentration of 0.01 milligrams of the 1-mcp gas per liter of gas.
Subsequently, the potatoes of the control group (2 groups) and the treatment group (2 groups) were bagged (two groups). The two groups were stored in a constant temperature and humidity chamber at 25±1° C. and relative humidity of 60% for 12 d. One of the groups was an illumination group with an illumination intensity of 10,000 LUX, and the other one was a group with protection from light having an illumination intensity of 0 LUX (in the dark). The tuber skin of the potatoes was taken every 3 d and photographed. The skin was then frozen in liquid nitrogen, and stored at −80° C. for subsequent analysis.
Potato tubers treated for corresponding days were picked out. 6 potatoes were randomly selected from each group. the skin of potato tuber was peeled off, and immediately measured for the color difference with a colorimeter (Shenzhen ThreeNH Technology Co., Ltd., model: NR60CP+), and the a* value was determined and recorded with a […] to indicate the color change of the potato skin. a* was an important parameter for measuring color and lustre. The positive or negative value indicated reddish (positive indicated reddish) or greenish (negative indicated greenish), and the magnitude of the absolute value indicated the degree of reddish or greenish. The colorimeter was calibrated with a standard white plate before determination.
Three groups of experiments were set up. One group was as described in Example 1, in which potato tubers were fumigated with 1-MCP and NaOH, serving as the control group in this experiment. The difference between an experimental group 1 and the control group was that no NaOH solution was used, but an equal volume of water was used. The difference between an experimental group 2 and the control group was that no NaOH solution was used, but an equal volume of anhydrous ethanol was used.
This example employed the method provided in Example 1, and employed 1-MCP and NaOH to fumigate potato tubers, where the dosages of 1-MCP were 1, 5, 10, 15, and 20 mg, respectively. The greening index a* value was determined by the same method as in Example 1.

[3] = system: solanine synthesis-related genes; assay: Gene expression by real-time PCR: solanine synthesis genes; design: species or system potato; conditions: during the greening period; vs control
Protocol: Genes related to inhibition of solanine synthesis included StHMGR, StPSS1, StSQE1, StCAS1, StSSR2, StSSR1, StPGA2, StPGA1, StDOX, StGAME6, StPGA3, StGAME12, StSGT1, StSGT2, and StSGT3.
as §1

potato tubers [4] = assay: Determination of chlorophyll content; assay type: in vivo, potato ("V7"); conditions: illumination group, during storage 12 d; vs control
Protocol: as §2
One group served as a control group (CK) without any subsequent treatment, and contained 50 potatoes. For another group, a carton was provided, in which 50 potatoes were placed. The carton was placed in a controlled atmosphere storage box with a volume of 1,000 L at a temperature controlled at 25° C. and the humidity maintained at 60%. The gas composition in the controlled atmosphere storage box was maintained the same as that of the atmosphere. […]
0.2 g of a potato frozen sample (the sample of the illumination group) was taken, grounded into a homogenate with 1.5 mL of 95% (v/v) ethanol in an ice bath, and then centrifuged at a rotational speed of 10.000 r/min for 10 min. The precipitate was discarded, the supernatant was taken, and 95% ethanol was used as a blank group, to determine the absorbance values at 649 nm and 665 nm, respectively. […]

potato tubers [5] = assay: Determination of solanine content (LC-MS); assay type: in vivo, potato ("V7"); conditions: vs control
Protocol: as §2
One group served as a control group (CK) without any subsequent treatment, and contained 50 potatoes. For another group, a carton was provided, in which 50 potatoes were placed. The carton was placed in a controlled atmosphere storage box with a volume of 1,000 L at a temperature controlled at 25° C. and the humidity maintained at 60%. The gas composition in the controlled atmosphere storage box was maintained the same as that of the atmosphere. A space was reserved in the controlled atmosphere storage box. 10 mg of 1-MCP dry powder was weighed into a glass weighing bottle. The weighing bottle containing 1-mcp was placed in the controlled atmosphere storage box, and added with 2 ml of a 1M NaOH solution to release 1-mcp gas from the weighing bottle. The weight of the gas was 10 mg. The potatoes were placed in the gas environment, fumigated for 16 h, taken out and then air-dried for 1 h. The meaning of “fumigation” here was to put the potatoes in a gas environment of 10 mg 1-mcp in a 1,000 L controlled atmosphere storage box, which was equivalent to a concentration of 0.01 milligrams of the 1-mcp gas per liter of gas. […]
Solanine was mainly composed of solanine and chaconine, with solanidine as aglycone. Therefore, α-solanine and α-chaconine (Sigma-Aldrich, USA) were used as chemical standards for quantification of SGA content. • 1) Liquid chromatography conditions: AgilentEclipsePlusC18 chromatographic column (100 mm×2.1 mm, 1.8 μm); the mobile phase A was 1 mmol/L of an acidified ammonium formate solution, and the mobile phase B was acetonitrile. […]

[6] = system: chlorophyll synthesis-related genes; assay: Gene expression by real-time PCR: chlorophyll synthesis genes; design: species or system potato; conditions: during the greening period; vs control
Protocol: Chlorophyll synthesis-related genes included StHEMA, StGSA, StPBGD, StCPO, StPPO, StCHLD, StCHLI, StCHLH, STCHLHM, StCRD1, StPOR1, StPOR2, StCHLG, and StCHLP.
as §1

potato tubers [7] = assay: Determination of ethylene release amount; assay type: in vivo, potato ("V7"); conditions: illumination group, entire storage period 12 d; vs control
Protocol: as §2
One group served as a control group (CK) without any subsequent treatment, and contained 50 potatoes. For another group, a carton was provided, in which 50 potatoes were placed. The carton was placed in a controlled atmosphere storage box with a volume of 1,000 L at a temperature controlled at 25° C. and the humidity maintained at 60%. The gas composition in the controlled atmosphere storage box was maintained the same as that of the atmosphere. A space was reserved in the controlled atmosphere storage box. 10 mg of 1-MCP dry powder was weighed into a glass weighing bottle. […]
4 potato tubers were randomly selected and placed in a sealed container (illumination group). They were placed at respective storage temperatures for 3 h, and then 5 mL of gas was extracted and determined for ethylene content using a Shimadzu type 2014C gas chromatograph (Shimadzu, Japan). […]

potato tubers [8] = assay: Long-term preservation effect under natural illumination; assay type: in vivo, potato ("V7"); conditions: for color difference value: natural day/night, 25±1° C.
Protocol: as §3
In order to simulate natural illumination, the aforementioned control and treated potatoes were placed in an incubator (fully transparent), and placed under conditions of 25±1° C. and relative humidity of 60% in an outdoor environment. Based on the environment with natural alternation of day and night, the color difference was calculated through instruments. The change in color difference values was measured every 5 days during storage for 2, 3, and 6 months. […] In the 2nd month of storage, the color difference value of the control group was −14, while the test value of the treatment group was −2.2.

[9] = cited from earlier work

Compound: silver thiosulfate
- effect on greening of potatoes (potatoes): will not inhibit the potatoes from greening

Compound: C1=CC2C=CC1C2 [2,5-norbornadiene]
- effect on greening of potatoes (potatoes): accelerate the greening progress

Compound: O=C(O)c1ccccc1O [salicylic acid]
- effect on greening of potatoes (potatoes): accelerate the greening progress

Compound: 1-methylcyclopropene [1-MCP]
- expression of the germination-promoting gene StPOD42 (StPOD42): did not affect the expression
- expression amount of chlorophyll degradation genes [1]: significantly higher than those in the control group
- greening index a*: fumigation with NaOH compared with equal volume of water or ethanol (potato tubers [2]; Example 3, 1-MCP released with NaOH solution vs water vs anhydrous ethanol): significantly improve the effect of 1-MCP in inhibiting greening
- greening index a* (potato tubers [2]; dark (0 LUX), 6th day of storage): basically no greening
- Value of greening index a* (potato tubers [2]; dosage of 1-MCP 1 mg, storage 12 d): −3.2
- Value of greening index a* (potato tubers [2]; dosage of 1-MCP 5 mg, storage 12 d): −2.1
- Value of greening index a* (potato tubers [2]; dosage of 1-MCP 10 mg, storage 12 d): −1.2
- Value of greening index a* (potato tubers [2]; dosage of 1-MCP 15 mg, storage 12 d): −1.8
- Value of greening index a* (potato tubers [2]; dosage of 1-MCP 20 mg, storage 12 d): −2.6
- greening index a* (potato tubers [2]; illumination 10,000 LUX, 25±1° C., storage 12 d, vs control): still remained at a relatively high level
- expression amount of solanine synthesis-related genes [3]: significantly lower than those in the control group
- chlorophyll content (potato tubers [4]): increased slowly compared with the control group
- solanine content (potato tubers [5]; during storage, dark or light): increased very slowly
- α-chaconine content (potato tubers [5]; starting from the 3rd day): significantly different from those in the control group
- α-solanine content (potato tubers [5]; starting from the 3rd day): significantly different from those in the control group
- effect on greening of potatoes (potatoes): significantly inhibit potatoes from greening
- expression amount of chlorophyll synthesis-related genes [6]: significantly lower than those in the control group
- ethylene release amount (potato tubers [7]): always lower than that of the control group
- appearance (green spots) (potato tubers [8]; 2nd month of storage): no obvious changes
- color difference value (potato tubers [8]; 2nd month of storage): −2.2
- germination in appearance (potato tubers [8]; 3 months of storage): a small amount of germination
- occurrence of greening (potato tubers [8]; 3 months of storage): no occurrence of greening
- color difference value (potato tubers [8]; 3 months of storage): −3.4
- germination (potato tubers [8]; 6 months of storage): a small amount of germination
- occurrence of greening (potato tubers [8]; 6 months of storage): no occurrence of greening
- solanine content (potato tubers [8]; 6 months of storage): maintained within a safe range
- color difference value (potato tubers [8]; 6 months of storage): −6.7
- solubility in solvent ([9]; 3-dichlorotoluene): 2000 µg/mL
- water solubility ([9]; 20° C.): 137 µg/mL
- solubility in solvent ([9]; acetone): 2400 µg/mL
- solubility in solvent ([9]; ethyl acetate): 12500 µg/mL
- solubility in solvent ([9]; heptane): 2500 µg/mL
- solubility in solvent ([9]; methanol): 11250 µg/mL
- solubility in solvent ([9]; xylene): 2300 µg/mL

Compound: NOCC(=O)O [aminooxyacetic acid]
- effect on greening of potatoes (potatoes): will not inhibit the potatoes from greening
